Columns and labels:
Type in all cases: in vivo
[1] = test system: swine nematode (nematodes in the digestive tract); experiment: Repelling swine nematode in naturally infected pigs (fecal egg count, McMaster's method); conditions: 1% injection 0.2 mg/kg bw s.c.
Excerpt: (§1) Test agents: 1% ivermectin injection, 1% tenvermectin A injection, and 1% tenvermectin B injection as obtained in Example 1.
(§2) Test animals and grouping: pigs cultured in the same farm were selected, and 40 pigs naturally infected with nematodes in the digestive tract were selected for testing through fecal examination. The average weight of the test pigs was 30-50 kg. Forty pigs were randomly divided into 4 groups, 10 for each group. The first group was the ivermectin control group, the second group was the tenvermectin A group, and the third group was the tenvermectin B group. All the medicated groups were injected subcutaneously in the neck according to 0.2 mg/kg·bw. The forth group was a blank group and was not administered.
(§3) 1) The feces of the pigs in each group were collected and examined one by one a day before administration, and worm eggs were counted by the McMaster's method. The number of eggs per gram of feces (EPG) was counted and the condition of Haematopinus on the body surface was observed.
(§4) 2) 1, 2, 3 and 4 weeks after administration, the feces of the pigs in each group were examined by the McMaster's method, and the EPG was counted and the changes of Haematopinus on the body surface were observed.
3) The negative conversion rates and egg reduction rates of the test pigs were calculated by a conventional method to assess the efficacy of repelling swine nematode.

swine Haematopinus = experiment: Killing effect on swine Haematopinus on the body surface; conditions: pigs, 1% injection 0.2 mg/kg bw s.c., until the 7th day and in the following 3 weeks
Excerpt: as §1, §2, §3, §4
4) The killing effects of swine Haematopinus of the agents were assessed according to the survival of swine Haematopinus on the 7th day after administration.

[2] = test system: digestive tract nematodes; experiment: Repelling nematode in digestive track of sheep (fecal egg count); conditions: for Number of sheep negatively conversed: sheep (20 per group); for Number of sheep negatively conversed / Egg reduction rate (%) / Negative conversion rate (%): 1% injection 0.2 mg/kg bw s.c.; for Number of sheep negatively conversed / Egg reduction rate (%) / Negative conversion rate (%) / EPG after administration: 9th day after administration; for Egg reduction rate (%) / Negative conversion rate (%) / EPG after administration / EPG before administration: sheep; for EPG after administration / EPG before administration: eggs per gram of feces; for EPG after administration: 0.2 mg/kg bw s.c.; for EPG before administration: baseline a day before administration
Excerpt: as §1
Test animals and grouping: sheep grazed under the same condition were selected, and 80 sheep of 0.8-2.0 years old naturally infected with digestive tract nematodes were selected through fecal examination. The average weight of the test sheep was 30 kg. The 80 sheep were randomly divided into 4 groups, 20 heads for each group. The first group was the ivermectin control group, the second group was the tenvermectin A group, and the third group was the tenvermectin B group. All the medicated groups were injected subcutaneously in the neck according to 0.2 mg/kg·bw. The fourth group was a blank group and was not medicated.
1) The feces of the sheep in each group were collected and examined one by one a day before administration, and the worm eggs were counted by the McMaster's method, and the number of eggs per gram of feces (EPG) was counted.
2) On the 9th day after administration, the sheep of each group were subjected to a fecal examination by McMaster's method, and EPG was counted.
3) The egg negative conversion rates and egg reduction rates were calculated according to a conventional method to assess the efficacy.

Sarcoptes mites = experiment: Treatment of Sarcoptes mites of sheep (skin scrapings, live mites); conditions: 1% injection 0.2 mg/kg bw s.c.; for Negative conversion number: sheep (10 per group); for Negative conversion rate (%): sheep
Excerpt: Test agents: 1% ivermectin injection, 1% tenvermectin A injection and 1% tenvermectin B injection as obtained in Example 1.
Test animals and grouping: sheep grazed under the same conditions were selected. Upon parasitological examination, 40 sheep which had been infected with sheep Sarcoptes mites were selected. The 40 sheep were randomly divided into 4 groups, 10 heads for each group. The first group was the ivermectin control group, the second group was the tenvermectin A group, and the third group was the tenvermectin B group. All the medicated groups were injected subcutaneously in the neck according to 0.2 mg/kg·bw. The fourth group was a blank group and was not medicated.
Test methods: the changes of clinical symptoms were observed. The skin of sheep was scratched using a surgical blade with glycerin at the junction of the affected part and the healthy skin of the diseased sheep until the skin slightly bled. The skin scraps were taken then were placed in a dish and brought back to the laboratory. Then the skin scraps were placed on a slide, a drop of aqueous solution of 50% glycerol was added, and a cover slip was covered, and then the skin scraps were checked under a low magnification microscope. It was confirmed to be positive if live Sarcoptes mites were observed. Samples were taken before administration and at 1, 2, 3 and 4 weeks after administration to be examined. The samples were examined under a microscope, based on whether live mites were observed, the samples can be determined to be positive as long as one live mite was observed. Changes of clinical symptoms were observed as references.

[3] = test system: allogynogenetic crucian carp; experiment: Toxicity to allogynogenetic crucian carp, semi-static method, 96 hours; conditions: allogynogenetic crucian carp
Excerpt: Test fish and water: allogynogenetic crucian carp was purchased from Taowang Farm in Jiaojiang District, Taizhou City, with a body length of (9.60±0.52) cm and a body weight of (28.22±3.44) g. The healthy and vigorous fish with the same size were selected and temporarily raised in an indoor aquarium. They were domesticated for 7 days indoors before the test. The natural mortality rate was zero.
99.4% Tenvermectin A (the mass content of tenvermectin B was 0.02%) (Zhejiang Hisun Pharmaceutical Co., Ltd.);
Tenvermectin (the mass ratio of tenvermectin A/tenvermectin B was 95/5) (Zhejiang Hisun Pharmaceutical Co., Ltd.);
Tenvermectin (the mass ratio of tenvermectin A/tenvermectin B was 90/10) (Zhejiang Hisun Pharmaceutical Co., Ltd.);
Tenvermectin (the mass ratio of tenvermectin A/tenvermectin B was 85/15) (Zhejiang Hisun Pharmaceutical Co., Ltd.);
99.1% Tenvermectin B (the mass content of tenvermectin A was 0.51%) (Zhejiang Hisun Pharmaceutical Co., Ltd.);
92% Avermectin (Zhejiang Qianjiang Biochemical Co., Ltd.);
96% Ivermectin (Zhejiang Hisun Pharmaceutical Co., Ltd.);
90% Methylamino avermectin benzoate (Emamectin benzoate) (Zhejiang Shenghua Biok Biotechnology Co., Ltd.).
Method: semi-static method. […]

Row | SMILES | Egg reduction rate (%) ([1]; 1st week after administration) | Negative conversion rate (%) ([1]; 1st week after administration) | Egg reduction rate (%) ([1]; 2nd week after administration) | Negative conversion rate (%) ([1]; 2nd week after administration) | Egg reduction rate (%) ([1]; 3rd week after administration) | Negative conversion rate (%) ([1]; 3rd week after administration) | Egg reduction rate (%) ([1]; 4th week after administration) | Negative conversion rate (%) ([1]; 4th week after administration) | active Haematopinus observed on the body surface (swine Haematopinus) | Number of sheep negatively conversed [2] | Egg reduction rate (%) [2] [%] | Negative conversion rate (%) [2] [%] | EPG after administration [2] | EPG before administration [2] | Negative conversion number (Sarcoptes mites; 1st week) | Negative conversion number (Sarcoptes mites; 2nd week) | Negative conversion number (Sarcoptes mites; 3rd week) | Negative conversion number (Sarcoptes mites; 4th week) | Negative conversion rate (%) (Sarcoptes mites; 1st week) | Negative conversion rate (%) (Sarcoptes mites; 2nd week) | further results
1 | COC1CC(OC2C(C)OC(OC3C(C)=CCC4CC(CC5(CCC(C)C(C)O5)O4)OC(=O)C4C=C(C)C(O)C5OCC(=CC=CC3C)C45O)CC2OC)OC(C)C1O (centres unmarked) [Tenvermectin A, tenvermectin A] | 79.6 | 70 | 89.5 | 80 | 98.6 | 90 | 78.8 | 70 | no active Haematopinus was found | 20 | 100 | 100 | 0 | 11600 | 8 | 9 | 10 | 10 | 80 | 90 | Negative conversion rate (%) (Sarcoptes mites; 3rd week): 100%; Negative conversion rate (%) (Sarcoptes mites; 4th week): 100%; Survival condition (survival rates/%) ([3]; 0.5 ppm, 8 h): 100%; Survival condition (survival rates/%) ([3]; 0.5 ppm, 24 h): 100%; Survival condition (survival rates/%) ([3]; 0.5 ppm, 48 h): 100%; Survival condition (survival rates/%) ([3]; 0.5 ppm, 72 h): 100%; Survival condition (survival rates/%) ([3]; 0.5 ppm, 96 h): 100%; Survival condition (survival rates/%) ([3]; 1.0 ppm, 8 h): 100%; Survival condition (survival rates/%) ([3]; 1.0 ppm, 24 h): 100%; Survival condition (survival rates/%) ([3]; 1.0 ppm, 48 h): 100%; Survival condition (survival rates/%) ([3]; 1.0 ppm, 72 h): 100%; Survival condition (survival rates/%) ([3]; 1.0 ppm, 96 h): 100%; Survival condition (survival rates/%) ([3]; 2.0 ppm, 8 h): 100%; Survival condition (survival rates/%) ([3]; 2.0 ppm, 24 h): 100%; Survival condition (survival rates/%) ([3]; 2.0 ppm, 48 h): 100%; Survival condition (survival rates/%) ([3]; 2.0 ppm, 72 h): 100%; Survival condition (survival rates/%) ([3]; 2.0 ppm, 96 h): 100%; toxicity grade according to LC50 ([3]; 96-hour LC50): low toxic
2 | CC[C@H]1O[C@]2(CC[C@@H]1C)C[C@@H]1C[C@@H](C/C=C(\C)[C@@H](O[C@H]3C[C@H](OC)[C@@H](O[C@H]4C[C@H](OC)[C@@H](O)[C@H](C)O4)[C@H](C)O3)[C@@H](C)/C=C/C=C3\CO[C@@H]4[C@H](O)C(C)=C[C@@H](C(=O)O1)[C@]34O)O2 [Tenvermectin B, tenvermectin B] | 85.3 | 80 | 100 | 100 | 100 | 100 | 95.8 | 90 | no active Haematopinus was found | 20 | 100 | 100 | 0 | 12200 | 9 | 10 | 10 | 10 | 90 | 100 | Negative conversion rate (%) (Sarcoptes mites; 3rd week): 100%; Negative conversion rate (%) (Sarcoptes mites; 4th week): 100%; Survival condition (survival rates/%) ([3]; 0.5 ppm, 8 h): 100%; Survival condition (survival rates/%) ([3]; 0.5 ppm, 24 h): 80%; Survival condition (survival rates/%) ([3]; 0.5 ppm, 48 h): 33%; Survival condition (survival rates/%) ([3]; 0.5 ppm, 72 h): 0%; Survival condition (survival rates/%) ([3]; 1.0 ppm, 8 h): 75%; Survival condition (survival rates/%) ([3]; 1.0 ppm, 24 h): 3%; Survival condition (survival rates/%) ([3]; 2.0 ppm, 8 h): 20%; Survival condition (survival rates/%) ([3]; 2.0 ppm, 24 h): 0%
